Source: patent publication US9522177B2, “Antimicrobial and immunostimulatory system comprising an oxidoreductase enzyme” (Institute of Technology Sligo, priority 2006, dated 2016)

Tests used:
[1] = test system: clinical isolates of Mastitis causing Staphylococcus aureus; test: Inhibition assay (3 day repeats), mastitis isolates; type: cell-based; settings: for sensitivity of clinical isolate number 15: Mastitis causing Staphylococcus aureus isolate number 15, FIG. 11b
Experimental: 22 isolates of Staphylococcus aureus from clinical mastitis obtained from Sligo regional Veterinary Laboratories are grown on nutrient agar or in nutrient broth for 24 hrs at 37° C.
Agar plates are inoculated by swabbing overnight culture onto the plate surface. Plates are allowed to stand at room temperature for 15 minutes before use. Wells 8.2 mm diameter are bored into the surface of the agar. One hundred and eighty μl of sample is placed into each well. The samples diffuse into the agar around the well and are assayed for an ability to produce a zone of inhibition. Plates are incubated for 24, 48 or 72 hrs and zones of inhibition are measured using an Autodata automatic zone reader. The diameter of zones, including the diameter of the well (8.2 mm), is recorded.

L929 cells = test: ISO 10993-5 agar overlay cytotoxicity (neutral red); settings: positive control, 24 hrs
Experimental: ISO 10993, agar overlay tests for cytotoxicity: in vitro method is also used, employing L929 cells (mouse fibroblasts ECACC 85011425). In brief; a confluent monolayer of cells is incubated, this is then covered with a layer fresh medium (EMEM, 2 mM L-Glutamine, 5% FBS, 2% Penicillin-Streptomycin) containing 1.5 g/l of soft agar and allowed to solidify. One tenth of the surface is covered with test materials (previously described) and incubated for 24 hrs. Post incubation the test material is carefully removed and a vital stain (neutral red) in fresh media added. After incubation this is removed, the cells washed and then the dye extracted from the cells and quantified spectrophotometrically for cell viability.
Percent toxicity was calculated according to the formula: % Toxicity=1−(OD average of test material wells/average OD of corresponding control wells (sodium azide added))×100. Included in the assay are a 50% concentration of A^3IS, a range of concentrations of commercial silver containing gel and commercial zinc containing gel product, compared to sodium azide (positive control). […] For the agar overlay toxicity assay the amount of test materials used was similar to that used for the initial direct contact assays of 100 mg per well however the contact time was extended to 24 hrs.

| Compound | sensitivity of clinical isolate number 15 [1] | other results |
| --- | --- | --- |
| Nisin [2% Nisin] |  | resistant colonies in zone of inhibition assays ([1]; FIG. 11e): resistant colony within the zone of inhibition |
| CN[C@H](CC(C)C)C(=O)N[C@H]1C(=O)N[C@@H](CC(N)=O)C(=O)N[C@H]2C(=O)N[C@H]3C(=O)N[C@H](C(=O)N[C@H](C(=O)O)c4cc(O)cc(O)c4-c4cc3ccc4O)[C@H](O)c3ccc(c(Cl)c3)Oc3cc2cc(c3O[C@@H]2O[C@H](CO)[C@@H](O)[C@H](O)[C@H]2O[C@H]2C[C@](C)(N)[C@H](O)[C@H](C)O2)Oc2ccc(cc2Cl)[C@H]1O [Vancomycin] | resistant |  |
| [N-]=[N+]=[N-] [sodium azide] |  | % Toxicity (L929 cells): 100% |
| O=C(N[C@H](CO)[C@H](O)c1ccc([N+](=O)[O-])cc1)C(Cl)Cl [Chloramphenicol] | only mild sensitivity |  |
| [H]/N=C(/N)N[C@H]1[C@H](O)[C@@H](O)[C@H](O[C@@H]2O[C@@H](C)[C@](O)(C=O)[C@H]2O[C@@H]2O[C@@H](CO)[C@H](O)[C@@H](O)[C@@H]2NC)[C@@H](N/C(N)=N\[H])[C@@H]1O [Streptomycin] | resistant |  |
